# Results published in ChEMBL document CHEMBL1155287, “Discovery of a small molecule inhibitor through interference with the gp120-CD4 interaction” (Bioorg Med Chem Lett, 2009).
# What was measured:
# in vitro [1] = conditions: human, liver microsomes
# [2] = Cytotoxicity against human HeLaP4 cells; format: cell-based
# [3] = Lipophilicity, log D at pH 7.4; format: physicochemical; conditions: buffer
# [4] = Inhibition of HIV1 JRFL gp120-mediated CHO cells fusion to HeLaP4 cells by HIV LTR-beta galactosidase reporter assay; format: cell-based; conditions: Human immunodeficiency virus 1, JRFL
# [5] = Volume of distribution in rat at 1 mg/kg, iv and 1 mg/kg, po; format: ADME, organism-based; conditions: in vivo
# in vitro [6] = conditions: rat, liver microsomes
# [7] = Half life in rat at 1 mg/kg, iv and 1 mg/kg, po; format: ADME, organism-based; conditions: in vivo
# [8] = Plasma protein binding in rat at 1 mg/kg, iv and 1 mg/kg, po; format: ADME, organism-based; conditions: read-out: PPB (converted)
# [9] = Clearance in rat at 1 mg/kg, iv and 1 mg/kg, po; format: ADME, organism-based; conditions: in vivo
# [10] = Bioavailability in rat at 1 mg/kg; format: ADME, organism-based; conditions: in vivo
# [11] = system: Human immunodeficiency virus 1; experiment: Antiviral activity against Human immunodeficiency virus 1 NL4-3 assessed as inhibition of viral entry in HeLaP4 cells after 5 days by beta galactosidase reporter assay; format: functional, organism-based; conditions: Human immunodeficiency virus 1, NL4-3, HeLaP4, 120 h
# [12] = system: Human immunodeficiency virus 1; experiment: Antiviral activity against Human immunodeficiency virus 1 BaL infected human PBMC cells by Phenosense assay; format: functional, organism-based
# [13] = system: Human immunodeficiency virus 1; experiment: Antiviral activity against Human immunodeficiency virus 1 BR92004 infected human PBMC cells by Phenosense assay; format: functional, organism-based; conditions: Human immunodeficiency virus 1, BR92004, PBMC
# [14] = system: Human immunodeficiency virus 1; experiment: Antiviral activity against Human immunodeficiency virus 1 3B infected human PBMC cells by Phenosense assay; format: functional, organism-based
# [15] = system: Human immunodeficiency virus 1; experiment: Antiviral activity against Human immunodeficiency virus 1 BR92023 infected human PBMC cells by Phenosense assay; format: functional, organism-based; conditions: Human immunodeficiency virus 1, BR92023, PBMC
smiles,measurement,setting,value
Cc1c(OC(C)C(=O)N2CCN(C(=O)c3ccccc3)C[C@H]2C)cccc1-c1ncno1 (mixture of isomers),microsomal CLint,in vitro [1],141 µL/min/mg
same,CC50,[2],> 10 µM
same,logD,[3],2.1
same,IC50,[4],0.075 µM
Cc1ccc(OC(C)C(=O)N2CCN(C(=O)c3ccccc3)C[C@H]2C)cc1C (mixture of isomers),microsomal CLint,in vitro [1],158 µL/min/mg
same,CC50,[2],> 10 µM
same,IC50,[4],0.1 µM
CNC(=O)c1ccc(O[C@@H](C)C(=O)N2CCN(C(=O)c3ccccc3)C[C@H]2C)c(OC)c1,microsomal CLint,in vitro [1],< 8 µL/min/mg
same,Vd,[5],4.3 L/kg
same,CC50,[2],> 10 µM
same,logD,[3],1
same,half-life,in vitro [6],> 2 h
same,half-life,[7],0.7 h
same,fraction unbound,[8],0.81
same,clearance,[9],75 mL/min/kg
same,IC50,[4],0.017 µM
same,bioavailability,[10],48%
same,IC50,[11],0.003 µM
CNC(=O)c1ccc(OC(C)C(=O)N2CCN(C(=O)c3ccccc3)C[C@H]2C)cc1C (mixture of isomers),microsomal CLint,in vitro [1],< 8 µL/min/mg
same,CC50,[2],> 10 µM
same,logD,[3],1.1
same,IC50,[4],1 µM
CC(Oc1cccc(Cl)c1)C(=O)N1CCN(C(=O)c2ccccc2)C[C@H]1C (stereo not given in full),CC50,[2],> 10 µM
same,IC50,[4],1 µM
CC(Oc1cccc(-c2ccn[nH]2)c1)C(=O)N1CCN(C(=O)c2ccccc2)C[C@H]1C (mixture of isomers),microsomal CLint,in vitro [1],61 µL/min/mg
same,CC50,[2],> 10 µM
same,logD,[3],2.3
same,IC50,[4],0.035 µM
CNC(=O)c1ccc(OC(C)C(=O)N2CCN(C(=O)c3ccccc3)C[C@H]2C)c(F)c1 (mixture of isomers),microsomal CLint,in vitro [1],< 8 µL/min/mg
same,CC50,[2],> 10 µM
same,logD,[3],1.4
same,IC50,[4],2 µM
CCOc1cc(C(=O)NC)ccc1OC(C)C(=O)N1CCN(C(=O)c2ccccc2)C[C@H]1C (mixture of isomers),CC50,[2],> 10 µM
same,IC50,[4],> 2 µM
CNC(=O)c1ccc(O[C@H](C)C(=O)N2CCN(C(=O)c3ccccc3)C[C@H]2C)c(OC)c1,CC50,[2],> 10 µM
same,IC50,[4],> 2 µM
CNC(=O)c1cccc(OC(C)C(=O)N2CCN(C(=O)c3ccccc3)C[C@H]2C)c1OC (mixture of isomers),microsomal CLint,in vitro [1],< 8 µL/min/mg
same,CC50,[2],> 10 µM
same,logD,[3],1
same,IC50,[4],> 10 µM
CNC(=O)c1cc(OC)c(O[C@@H](C)C(=O)N2CCN(C(=O)c3ccccc3)C[C@H]2C)cn1 (mixture of isomers),IC50,[12],0.025 µM
same,microsomal CLint,in vitro [1],< 8 µL/min/mg
same,Vd,[5],1.5 L/kg
same,CC50,[2],> 10 µM
same,logD,[3],0.7
same,half-life,in vitro [6],> 2 h
same,half-life,[7],1 h
same,fraction unbound,[8],0.69
same,IC50,[13],0.006 µM
same,IC50,[14],0.01 µM
same,IC50,[4],0.011 µM
same,bioavailability,[10],65%
same,IC50,[11],0.002 µM
same,IC50,[15],0.0006 µM
CNC(=O)c1cccc(OC(C)C(=O)N2CCN(C(=O)c3ccccc3)C[C@H]2C)c1 (mixture of isomers),microsomal CLint,in vitro [1],< 8 µL/min/mg
same,CC50,[2],> 10 µM
same,logD,[3],1.3
same,IC50,[4],1.4 µM
CNC(=O)c1ccc(OC(C)C(=O)N2CCN(C(=O)c3ccccc3)C[C@H]2C)cc1 (mixture of isomers),microsomal CLint,in vitro [1],< 8 µL/min/mg
same,CC50,[2],> 10 µM
same,logD,[3],1.1
same,IC50,[4],2.6 µM
CC(Oc1ccc(C(=O)N(C)C)cc1)C(=O)N1CCN(C(=O)c2ccccc2)C[C@H]1C (mixture of isomers),microsomal CLint,in vitro [1],< 8 µL/min/mg
same,CC50,[2],> 10 µM
same,logD,[3],0.9
same,IC50,[4],> 25 µM
CNC(=O)c1cccc(OC(C)C(=O)N2CCN(C(=O)c3ccccc3)C[C@H]2C)c1C (mixture of isomers),microsomal CLint,in vitro [1],< 8 µL/min/mg
same,CC50,[2],> 10 µM
same,logD,[3],1.2
same,IC50,[4],12 µM
CNC(=O)c1ccccc1OC(C)C(=O)N1CCN(C(=O)c2ccccc2)C[C@H]1C (mixture of isomers),microsomal CLint,in vitro [1],23 µL/min/mg
same,CC50,[2],> 10 µM
same,logD,[3],1.5
same,IC50,[4],> 25 µM
CC(Oc1ccccc1C(=O)N(C)C)C(=O)N1CCN(C(=O)c2ccccc2)C[C@H]1C (mixture of isomers),microsomal CLint,in vitro [1],31 µL/min/mg
same,CC50,[2],> 10 µM
same,logD,[3],1.1
same,IC50,[4],> 25 µM
CNC(=O)c1ccc(O[C@@H](C)C(=O)N2CCN(C(=O)c3ccccc3)C[C@H]2C)c(OC)n1 (mixture of isomers),CC50,[2],> 10 µM
same,IC50,[4],0.257 µM
CC(Oc1cccc(C(=O)N(C)C)c1)C(=O)N1CCN(C(=O)c2ccccc2)C[C@H]1C (mixture of isomers),microsomal CLint,in vitro [1],12 µL/min/mg
same,CC50,[2],> 10 µM
same,logD,[3],1
same,IC50,[4],> 25 µM
CNC(=O)c1ccc(OC(C)C(=O)N2CCN(C(=O)c3ccccc3)C[C@H]2C)c(C)c1 (mixture of isomers),microsomal CLint,in vitro [1],< 8 µL/min/mg
same,CC50,[2],> 10 µM
same,logD,[3],1.8
same,IC50,[4],2.9 µM
CNC(=O)c1ccc(OC(C)C(=O)N2CCN(C(=O)c3ccccc3)C[C@H]2C)cc1OC (mixture of isomers),CC50,[2],> 10 µM
same,IC50,[4],2.7 µM
